Measured values taken from patent publication US8802678B2, “Carbonylated (aza) cyclohexanes as dopamine D3 receptor ligands” (Bioprojet, priority 2006, dated 2014).

| Structure (SMILES) | melting point |
| --- | --- |
| CC(C)(C)OC(=O)CN1CCC(CCN2CCN(c3cccc(C(F)(F)F)c3)CC2)CC1.Cl.Cl | 245 °C |
| Cl.N#CCC(=O)N[C@H]1CC[C@H](CCN2CCN(c3ccccc3)CC2)CC1 | 243 °C |
| Cl.N#CCC(=O)N[C@H]1CC[C@@H](CCN2CCN(c3ccccc3F)CC2)CC1 | 153 °C |
| COCC(=O)N1CCC(CCN2CCN(c3cccc(C(F)(F)F)c3)CC2)CC1.Cl | 150 °C |
| CC(C)Oc1cccc(N2CCN(CC[C@H]3CC[C@H](NC(=O)CC#N)CC3)CC2)c1.Cl | 191 °C |
| CC(=O)CN1CCC(CCN2CCN(c3cc(C#N)cc(C(F)(F)F)c3)CC2)CC1.Cl.Cl | 280 °C |
| N#CCC(=O)N[C@H]1CC[C@H](CCN2CC=C(c3cc(C(F)(F)F)cc(C(F)(F)F)c3)CC2)CC1 | 174 °C |
| CC(=O)CN1CCC(CCN2CCN(c3cccc(C#N)c3)CC2)CC1.Cl.Cl | 250 °C |
| CCOC(=O)CN1CCC(CCN2CCN(c3cccc(C(F)(F)F)c3)CC2)CC1.Cl.Cl | 240 °C |
| CC(=O)CN1CCC(CCN2CC=C(c3cccc(C)c3C)CC2)CC1.Cl.Cl | 310 °C |
| Cl.Cl.O=C(CN1CCC(CCN2CCN(c3cccc(C(F)(F)F)c3)CC2)CC1)c1ccc(F)cc1 | 265 °C |
| CCc1cccc(C2=CCN(CC[C@H]3CC[C@H](NC(=O)CC#N)CC3)CC2)c1 | 158 °C |
| CCc1cccc(N2CCN(CCC3CCN(CC(C)=O)CC3)CC2)c1.Cl.Cl | 266 °C |
| CC(=O)CN1CCC(CCN2CCN(c3cc(C(F)(F)F)cc(C(F)(F)F)c3)CC2)CC1.Cl.Cl | 260 °C |
| N#CCC(=O)N[C@H]1CC[C@H](CCN2CC=C(c3cccc(C(F)(F)F)c3F)CC2)CC1 | 171 °C |
| CC(=O)CN1CCC(CCN2CCN(c3cccc(OC(F)(F)F)c3)CC2)CC1.Cl.Cl | 275 °C |
| N#CCCCC(=O)N[C@H]1CC[C@H](CCN2CC=C(c3cccc(C(F)(F)F)c3F)CC2)CC1 | 130 °C |
| Cc1cc(C)cc(C2=CCN(CC[C@H]3CC[C@H](NC(=O)CC#N)CC3)CC2)c1 | 182 °C |
| CC(=O)CN1CCC(CCN2CCN(c3cc(C(C)(C)C)cc(C(C)(C)C)c3)CC2)CC1.Cl.Cl | 308 °C |
| Cc1cc(C)cc(C2=CCN(CC[C@H]3CC[C@H](NC(=O)CCCC#N)CC3)CC2)c1 | 166 °C |

| Structure (SMILES) | melting point |
| --- | --- |
| N#CCC(=O)N[C@H]1CC[C@@H](CCN2CC=C(c3ccc(F)cc3)CC2)CC1 | 147 °C |
| COCC(=O)N[C@H]1CC[C@H](CCN2CCN(c3cccc(C(F)(F)F)c3)CC2)CC1.Cl | 217 °C |
| Cl.N#CCCCC(=O)N[C@H]1CC[C@H](CCN2CCN(c3ccccc3C(F)(F)F)CC2)CC1 | 248 °C |
| CC(=O)CN1CCC(CCN2CCN(c3ccc(C)c(C(F)(F)F)c3)CC2)CC1.Cl.Cl | 325 °C |
| CC(=O)CN1CCC(CCN2CCN(c3ccc(F)cc3)CC2)CC1.Cl.Cl | 270 °C |
| CCOCC(=O)N[C@H]1CC[C@H](CCN2CC=C(c3ccc(Cl)cc3)CC2)CC1 | 149 °C |
| N#CCCCC(=O)N[C@H]1CC[C@H](CCN2CC=C(c3ccc(Cl)cc3)CC2)CC1 | 198 °C |
| N#CCCCC(=O)N[C@H]1CC[C@H](CCN2CC=C(c3ccc(F)cc3)CC2)CC1 | 180 °C |
| CCOCC(=O)N[C@H]1CC[C@H](CCN2CCN(c3cccc(C(F)(F)F)c3)CC2)CC1.Cl | 184 °C |
| O=C(N[C@H]1CC[C@H](CCN2CC=C(c3ccccc3)CC2)CC1)C1=CCCC1 | 202 °C |
| N#CCC(=O)N[C@H]1CC[C@H](CCN2CC=C(c3ccc(C(F)(F)F)cc3)CC2)CC1 | 217 °C |
| O=C(N[C@H]1CC[C@H](CCN2CC=C(c3ccccc3F)CC2)CC1)C1=CCCC1 | 192 °C |
| CC(=O)CN1CCC(CCN2CCN(c3cccc(C(F)F)c3)CC2)CC1.Cl.Cl | 265 °C |
| N#CCCCC(=O)N[C@H]1CC[C@H](CCN2CC=C(c3cccc(C(F)(F)F)c3)CC2)CC1 | 102 °C |
| CC(=O)CC1CCC(CCN2CCN(c3cccc(C(F)(F)F)c3)CC2)CC1.Cl (stereo not shown) | 160 °C |
| CC(=O)CN1CCC(CCN2CCN(c3cc(C(C)(C)C)nc(C(C)(C)C)n3)CC2)CC1.Cl.Cl | 310 °C |
| COc1ccc(OC)c(N2CCN(CCC3CCN(CC(C)=O)CC3)CC2)c1.Cl.Cl | 268 °C |
| CC(=O)CN1CCC(CCN2CCN(c3cc(Cl)cc(C(F)(F)F)c3)CC2)CC1.Cl.Cl | 289 °C |
| CC(=O)CN1CCC(CCN2CC=C(c3cc(C(F)(F)F)ccc3F)CC2)CC1.Cl.Cl | 282 °C |
| N#CCC(=O)N[C@H]1CC[C@H](CCN2CC=C(c3cc(C(F)(F)F)ccc3F)CC2)CC1 | 168 °C |

| Structure (SMILES) | melting point |
| --- | --- |
| CC(=O)CN1CCC(CCN2CCN(c3cccc(OC(C)C)c3)CC2)CC1.Cl.Cl | 237 °C |
| CC(=O)CN1CCC(CCN2CCN(c3cccc(C(C)(C)C)c3)CC2)CC1.Cl.Cl | 257 °C |
| CCCOCC(=O)N[C@H]1CC[C@H](CCN2CCN(c3cc(C(F)(F)F)ccc3F)CC2)CC1.Cl | 240 °C |
| CC(=O)CN1CCC(CCN2CC=C(c3cccc(C#N)c3)CC2)CC1 | 94 °C |
| N#CCC(=O)N[C@H]1CC[C@H](CCN2CC=C(c3cccc(C#N)c3)CC2)CC1 | 185 °C |
| COCCCC(=O)N[C@H]1CC[C@H](CCN2CC=C(c3cccc(C#N)c3)CC2)CC1 | 178 °C |
| CC(=O)CN1CCC(CCN2CCN(c3cc(F)c(F)c(F)c3F)CC2)CC1.Cl.Cl | 235 °C |
| CC(=O)CN1CCC(CCN2CCN(c3cc(F)c(C(F)(F)F)c(F)c3)CC2)CC1.Cl.Cl | 80 °C |
| CC(=O)CN1CCC(CCN2CCN(c3cc(C(F)(F)F)nc(C(C)(C)C)n3)CC2)CC1.Cl.Cl.Cl | 287 °C |
| N#CCCCC(=O)N[C@H]1CC[C@H](CCN2CC=C(c3cc(C(F)(F)F)ccc3F)CC2)CC1 | 153 °C |
| COCCCC(=O)N[C@H]1CC[C@H](CCN2CC=C(c3cc(C(F)(F)F)ccc3F)CC2)CC1 | 164 °C |
| CC(=O)CN1CCC(CCN2CCN(c3cc(C)cc(F)c3)CC2)CC1.Cl.Cl | 273 °C |
| Cl.N#CCCC(=O)N1CCC(CCN2CC=C(c3cc(C(F)(F)F)ccc3F)CC2)CC1 | 150 °C |
| CCc1ccccc1C1=CCN(CCC2CCN(CC(C)=O)CC2)CC1.Cl.Cl | 316 °C |
| CCc1ccccc1C1=CCN(CC[C@H]2CC[C@H](NC(=O)CCCC#N)CC2)CC1 | 120 °C |
| Cc1ccccc1C1=CCN(CC[C@H]2CC[C@H](NC(=O)CC#N)CC2)CC1 | 166 °C |
| CC(=O)CN1CCC(CCN2CC=C(c3ccccc3C)CC2)CC1.Cl.Cl | 292 °C |
| CC(=O)CN1CCC(CCN2CCN(c3cccc(CC(C)C)c3)CC2)CC1.Cl.Cl | 240 °C |
| COCCCC(=O)N[C@H]1CC[C@H](CCN2CC=C(c3ccc(F)cc3)CC2)CC1 | 201 °C |
| N#CCC(=O)N[C@H]1CC[C@H](CCN2CC=C(c3cccc(C(F)(F)F)c3)CC2)CC1 | 149 °C |

More lines, now with the values ahead:

| melting point | Structure (SMILES) |
| --- | --- |
| 215 °C | CC(=O)CN1CCC(CCN2CCN(c3cccc(C)c3C#N)CC2)CC1.Cl.Cl |
| 283 °C | COc1ccc(C)c(N2CCN(CCC3CCN(CC(C)=O)CC3)CC2)c1.Cl.Cl |
| 290 °C | CC(=O)CN1CCC(CCN2CCN(c3cccc(C)c3C)CC2)CC1.Cl.Cl |
| 289 °C | CC(=O)CN1CCC(CCN2CCN(c3ccccc3C)CC2)CC1.Cl.Cl |
| 320 °C | CC(=O)CN1CCC(CCN2CCN(c3cccc4c3CCCC4)CC2)CC1.Cl.Cl |
| 270 °C | CC(=O)CN1CCC(CCN2CCN(c3cccc(C(F)(F)F)c3F)CC2)CC1.Cl.Cl |
| 260 °C | CC(=O)CN1CCC(CCN2CCN(c3cccc(C)c3)CC2)CC1.Cl.Cl |
| 317 °C | CC(=O)CN1CCC(CCN2CCN(c3cccc(F)c3C)CC2)CC1.Cl.Cl |
| 265 °C | COc1cccc(N2CCN(CCC3CCN(CC(C)=O)CC3)CC2)c1.Cl.Cl |
| 290 °C | CC(=O)CN1CCC(CCN2CCN(c3ccccc3C#N)CC2)CC1.Cl.Cl |
| 291 °C | CCc1ccccc1N1CCN(CCC2CCN(CC(C)=O)CC2)CC1.Cl.Cl |
| 295 °C | CC(=O)CN1CCC(CCN2CCN(c3cccc4c3CCC4)CC2)CC1.Cl.Cl |
| 260 °C | CC(=O)CN1CCC(CCN2CCN(c3ccccc3C(C)C)CC2)CC1.Cl.Cl |
| 260 °C | CC(=O)CN1CCC(CCN2CCN(c3ccc(F)cc3F)CC2)CC1.Cl.Cl |
| 275 °C | CC(=O)CN1CCC(CCN2CCN(c3ccc(C)c(C)c3)CC2)CC1.Cl.Cl |
| 270 °C | COc1c(Cl)cccc1N1CCN(CCC2CCN(CC(C)=O)CC2)CC1.Cl.Cl |

| melting point | Structure (SMILES) |
| --- | --- |
| 264 °C | CC(=O)CN1CCC(CCN2CCN(c3cccc4c3OCO4)CC2)CC1.Cl.Cl |
| 275 °C | CC(=O)CN1CCC(CCN2CCN(c3cc(C)ccc3F)CC2)CC1.Cl.Cl |
| 250 °C | CC(=O)CN1CCC(CCN2CCN(c3cccc(C(=O)C(C)C)c3)CC2)CC1.Cl.Cl |
| 210 °C | Cl.N#CCC(=O)N1CCC(CCN2CCN(c3cccc4c3CCC4)CC2)CC1 |
| 244 °C | CC(=O)C(=O)N1CCC(CCN2CCN(c3cccc(Cl)c3Cl)CC2)CC1.Cl |
| 228 °C | Cl.N#CCC(=O)N1CCC(CCN2CCN(c3cccc(Cl)c3Cl)CC2)CC1 |
| 271 °C | CCOc1ccccc1N1CCN(CCC2CCN(CC(C)=O)CC2)CC1.Cl.Cl |
| 137 °C | Cl.NC(=O)CCC(=O)N1CCC(CCN2CCN(c3cccc4c3CCC4)CC2)CC1 |
| 202 °C | CCC(=O)C(=O)N1CCC(CCN2CCN(c3cccc4c3CCC4)CC2)CC1.Cl |
| 260 °C | COc1ccc(C)cc1N1CCN(CCC2CCN(CC(C)=O)CC2)CC1.Cl.Cl |
| 299 °C | CC(=O)CN1CCC(CCN2CCN(c3cc(C(F)(F)F)ccc3Cl)CC2)CC1.Cl.Cl |
| 283 °C | CC(=O)CN1CCC(CCN2CCN(c3ccc(Cl)cc3Cl)CC2)CC1.Cl.Cl |
| 350 °C | CC(=O)CN1CCC(CCN2CCN(c3cc(C)ccc3C)CC2)CC1.Cl.Cl |
| 258 °C | CC(=O)CN1CCC(CCN2CCN(c3ccc(F)c(C)c3)CC2)CC1.Cl.Cl |
| 219 °C | Cl.O=C(CCC(F)(F)F)N1CCC(CCN2CCN(c3cccc4c3CCC4)CC2)CC1 |
